The results in this text go back to patent US20240327364A1, “THERAPEUTIC TARGETING OF GPR68 TO INDUCE FERROPTOSIS” (University Of Maryland, Baltimore, priority 2023, published 2024).

Where two headings read alike, the source gives them in different places. Bounds are passed on as bounds.

Experiment [1] deals with T1, RSK3(Kin.Dom.1-N-terminal) (Homo sapiens, UniProt Q15349).
T1 construct: RSK3(Kin.Dom.1-N-terminal); purchased DiscoveRx (Fremont, CA)
Put plainly: KinomeScan. It is filed as binding. Conditions: read-out: % Control.

The next experiment concerns the target T2, CysLT1 (Homo sapiens, UniProt Q9Y271).
T2 construct: host or cells: Chem-1 cells with Gα15
The experiment is described as follows: GPCR Profiler. It is filed as cell-based.

Another experiment has as its target T3, MAP3K4 (Homo sapiens, UniProt Q9Y6R4).
T3 construct: purchased DiscoveRx (Fremont, CA)
Put plainly: KinomeScan. It is filed as binding. Particulars: read-out: % Control.

A further experiment deals with T4, GRK1 (Homo sapiens, UniProt Q15835).
T4 construct: purchased DiscoveRx (Fremont, CA)
T4 sequence (Q15835 whole entry): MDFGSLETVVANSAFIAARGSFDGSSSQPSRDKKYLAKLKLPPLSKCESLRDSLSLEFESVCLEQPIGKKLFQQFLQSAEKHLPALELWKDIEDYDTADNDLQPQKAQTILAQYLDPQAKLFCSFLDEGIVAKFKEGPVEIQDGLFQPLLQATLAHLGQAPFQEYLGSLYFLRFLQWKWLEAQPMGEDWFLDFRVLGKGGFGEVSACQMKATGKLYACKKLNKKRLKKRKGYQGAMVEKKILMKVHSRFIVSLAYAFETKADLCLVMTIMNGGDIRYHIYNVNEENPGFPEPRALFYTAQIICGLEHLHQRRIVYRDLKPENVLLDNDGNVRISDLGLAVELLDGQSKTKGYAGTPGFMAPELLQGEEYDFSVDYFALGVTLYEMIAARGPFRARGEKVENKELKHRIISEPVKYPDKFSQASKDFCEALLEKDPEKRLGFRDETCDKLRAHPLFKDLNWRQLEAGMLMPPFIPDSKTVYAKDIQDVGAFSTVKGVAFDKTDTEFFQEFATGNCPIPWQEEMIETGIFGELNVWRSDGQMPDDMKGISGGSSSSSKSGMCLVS
Put plainly: KinomeScan. It is filed as binding. Particulars: read-out: % Control.

The target of a further experiment is T5, ZAK (Homo sapiens, UniProt Q9NYL2).
T5 construct: purchased DiscoveRx
T5 sequence (Q9NYL2 whole entry): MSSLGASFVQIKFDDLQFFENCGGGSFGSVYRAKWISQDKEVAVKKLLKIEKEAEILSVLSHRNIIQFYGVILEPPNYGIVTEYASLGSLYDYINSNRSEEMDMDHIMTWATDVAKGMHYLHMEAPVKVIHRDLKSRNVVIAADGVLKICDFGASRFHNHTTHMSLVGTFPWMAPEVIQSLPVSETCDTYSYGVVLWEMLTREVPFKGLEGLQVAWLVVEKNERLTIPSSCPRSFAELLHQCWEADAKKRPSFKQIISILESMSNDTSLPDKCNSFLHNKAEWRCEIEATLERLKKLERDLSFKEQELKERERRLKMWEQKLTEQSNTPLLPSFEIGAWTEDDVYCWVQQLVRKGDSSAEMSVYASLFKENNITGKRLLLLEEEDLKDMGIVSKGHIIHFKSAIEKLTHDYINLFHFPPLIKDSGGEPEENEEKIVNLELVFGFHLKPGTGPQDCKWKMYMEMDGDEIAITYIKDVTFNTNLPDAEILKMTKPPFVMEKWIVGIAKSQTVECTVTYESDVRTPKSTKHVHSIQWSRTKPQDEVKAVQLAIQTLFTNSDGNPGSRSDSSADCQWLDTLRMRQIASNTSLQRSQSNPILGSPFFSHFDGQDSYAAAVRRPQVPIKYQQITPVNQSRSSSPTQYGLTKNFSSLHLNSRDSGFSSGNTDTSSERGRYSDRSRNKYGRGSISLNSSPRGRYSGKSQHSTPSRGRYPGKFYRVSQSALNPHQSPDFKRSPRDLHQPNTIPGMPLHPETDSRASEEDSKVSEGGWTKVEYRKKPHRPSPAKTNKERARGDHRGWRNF
Put plainly: KinomeScan. Particulars: read-out: % Control. It is filed as binding.

For a further experiment, the target named is T6, Secretin (Homo sapiens, UniProt P47872).
T6 construct: host or cells: Chem-1 cells with Gα15
T6 sequence (P47872 23-440): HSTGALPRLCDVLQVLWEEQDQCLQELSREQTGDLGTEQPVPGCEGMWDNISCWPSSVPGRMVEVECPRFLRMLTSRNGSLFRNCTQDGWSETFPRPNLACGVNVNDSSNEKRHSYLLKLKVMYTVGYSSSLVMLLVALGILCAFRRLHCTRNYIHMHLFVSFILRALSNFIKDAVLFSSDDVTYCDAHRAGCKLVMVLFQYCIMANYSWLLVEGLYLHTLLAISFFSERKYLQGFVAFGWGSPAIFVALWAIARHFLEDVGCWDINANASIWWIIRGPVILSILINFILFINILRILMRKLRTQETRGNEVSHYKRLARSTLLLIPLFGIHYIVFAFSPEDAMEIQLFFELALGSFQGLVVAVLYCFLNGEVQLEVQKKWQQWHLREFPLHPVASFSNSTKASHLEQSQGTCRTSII
The experiment is described as follows: GPCR Profiler. It is filed as cell-based.

The next experiment deals with CSNK1G1 (Homo sapiens, UniProt Q9HCP0). The experiment is described as follows: KinomeScan. It is filed as binding. Particulars: read-out: % Control.
Sequence of CSNK1G1 (Q9HCP0 whole entry): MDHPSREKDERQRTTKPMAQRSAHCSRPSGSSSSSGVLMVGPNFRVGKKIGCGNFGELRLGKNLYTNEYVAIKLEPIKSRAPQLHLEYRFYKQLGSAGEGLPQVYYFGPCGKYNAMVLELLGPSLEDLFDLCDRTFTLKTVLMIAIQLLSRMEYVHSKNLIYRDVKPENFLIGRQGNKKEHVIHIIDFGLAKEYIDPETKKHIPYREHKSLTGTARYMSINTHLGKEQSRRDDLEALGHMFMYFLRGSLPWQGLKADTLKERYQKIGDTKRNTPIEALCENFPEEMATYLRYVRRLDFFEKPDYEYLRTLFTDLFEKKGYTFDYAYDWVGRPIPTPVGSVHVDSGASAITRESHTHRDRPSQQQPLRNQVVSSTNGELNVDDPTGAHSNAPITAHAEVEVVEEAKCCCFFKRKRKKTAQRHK
The target in a further experiment is T7, CAMK4 (Homo sapiens, UniProt Q16566).
T7 construct: purchased DiscoveRx (KinomeScan service)
T7 sequence (Q16566 whole entry): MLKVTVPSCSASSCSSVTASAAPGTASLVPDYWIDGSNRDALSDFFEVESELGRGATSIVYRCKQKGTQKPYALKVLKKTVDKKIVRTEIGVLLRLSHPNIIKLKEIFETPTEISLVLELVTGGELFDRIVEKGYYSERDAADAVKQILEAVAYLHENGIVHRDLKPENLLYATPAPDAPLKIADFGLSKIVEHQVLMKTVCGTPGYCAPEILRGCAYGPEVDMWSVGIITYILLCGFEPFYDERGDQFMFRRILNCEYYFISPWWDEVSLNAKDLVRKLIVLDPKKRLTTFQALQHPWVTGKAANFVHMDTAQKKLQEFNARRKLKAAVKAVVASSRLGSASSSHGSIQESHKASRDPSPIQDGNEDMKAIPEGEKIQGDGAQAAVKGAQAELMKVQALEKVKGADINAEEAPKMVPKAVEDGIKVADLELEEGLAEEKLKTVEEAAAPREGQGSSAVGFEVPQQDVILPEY
The experiment is described as follows: KinomeScan. It is filed as binding. Particulars: read-out: % Control.

In the next experiment the target is T8, NEK1 (Homo sapiens, UniProt Q96PY6).
T8 construct: purchased DiscoveRx
Put plainly: KinomeScan. It is filed as binding. Particulars: read-out: % Control.

A further experiment concerns the target T9, ADRA1D (Homo sapiens, UniProt P25100).
T9 construct: host or cells: Chem-1 cells with promiscuous Gα15
The experiment is described as follows: GPCR Profiler. It is filed as cell-based.

For a further experiment, the target named is T10, ACVR2A (Homo sapiens, UniProt P27037).
T10 construct: purchased DiscoveRx
T10 sequence (P27037 192-485 limits assumed): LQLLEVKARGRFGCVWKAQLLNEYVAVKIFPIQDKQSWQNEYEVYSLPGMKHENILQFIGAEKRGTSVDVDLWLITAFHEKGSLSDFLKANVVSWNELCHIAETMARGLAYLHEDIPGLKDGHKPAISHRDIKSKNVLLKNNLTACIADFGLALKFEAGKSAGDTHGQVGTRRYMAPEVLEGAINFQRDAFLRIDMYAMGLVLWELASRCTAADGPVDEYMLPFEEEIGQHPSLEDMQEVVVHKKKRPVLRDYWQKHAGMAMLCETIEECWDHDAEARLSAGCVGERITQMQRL
Put plainly: KinomeScan. It is filed as binding. Conditions: read-out: % Control.

The next experiment concerns the target T11, PRKCQ (Homo sapiens, UniProt Q04759).
T11 construct: purchased DiscoveRx (Fremont, CA)
Put plainly: KinomeScan. It is filed as binding. Conditions: read-out: % Control.

The subject of another experiment is U87 spheroids. The experiment is described as follows: GBM spheroid assay. It is filed as cell-based, human. As to the method:
One thousand cells per well were plated in an ultra-low attachment, round-bottomed, 96-well plate, and spheroids were allowed to form for 3 days. Wells were then exposed to concentrations of vehicle, OGM2 or TMZ or a combination for 3 days. Spheroids were imaged in brightfield at 10× using z-stacks that were collapsed into z-projections in the Gen5 software using the LionheartFx (BioTek™). Automated measurements of the spheroid area were obtained using Gen5 software.
Tumor spheroid cultures are a more physiological model of tumor growth than typical 2D cell culture. Temozolomide sensitive U87 (FIG. 20A) and Temozolomide insensitive U138 (FIG. 20B) glioblastoma cell lines were plated in low attachment round bottom 96-well plates and allowed to form tumor spheroids for 3 days (T0). At T0, spheroids were imaged using Lionheart™ (HCS) High-Content Imaging Systems (Biotek™) and then were exposed to increasing doses of either Temozolomide or OGM2. After 5 days of treatment the spheroids were imaged again (T5). The size (area) of the spheroids after 5 days of treatment was quantified, and the average size of the spheroids at TO is depicted in red.
A GPR68-positive allosteric modulator, Ogerin, was tested. U87glioblastoma cells were plated in low attachment round bottom 96-well plates and allowed to form tumor spheroids for 3 days (TO). These spheroids were treated with Vehicle (DMSO), 10 μM/20 μM Ogerin or 10 μM/20 μM Ogremorphin-2 (OGM2). The spheroids were placed in the Lionheart™ HCS equipped with environmental control (5% CO2 at 37° C.) and imaged every 12 hours.
Spheroids were formed over 3 days using low attachment 96-well round bottom plates and then treated with DMSO or OGM2 in either pH 8 buffered media or pH 6.2 buffered media and grown for 3 days. The size (area) of spheroids was measured in relative area units. […] This increase in growth was abrogated by OGM2.

The subject of another experiment is NCI-H82. The experiment is described as follows: Cell Titer-Glo viability, Lung cancer, small cell. It is filed as cell-based. On the procedure:
OGM2 kills wide variety of cancer cell types. Cell sensitivity can be classified in to Very Sensitive (LC50<2 μM), Sensitive (LC50=2 to 10 μM), Mildly Sensitive (LC50>10 μM), and Refractory (no killing at 10 μM). The listed established cell were incubated with OGM2 at 2 μM or 10 μM for 72 hours under standard cell culture conditions, and relative cell number was assessed using Cell Titer-Glo Luminescent Cell Viability Assay (Promega™) following the manufacturer's instructions. Luminescence was determined using a Cytation 5 reader and Gen5 software package (BioTek™).
Cancer cells, which are very sensitive to killing by OGM2 (LCs <2 μM), with reported mRNA expression of GPR68 and the related proton sensing receptor GPR4. LC50's (concentrations causing 50% lethality) were determined using CellTiter-Glo (Promega™, G7570). Cells were plated in 12-well plates (CELLTREAT Scientific Products, 229112) in 1 ml of DMEM with high glucose, GlutaMAX, HEPES, or RPMI 1640 with Penicillin-Streptomycin (ThermoFisher™, 10564029, 11875119 and 15140122) and 10% FBS. Cells were incubated overnight at 37° C. in 5% CO2. Then 1 mL of fresh media was added with DMSO, OGM, or positive control (Erastin; APExBIO Technology, LLC, B1524) and cells incubated for 3 days. On the third day, all media was removed, cells were rinsed with 1×PBS, PBS was removed, and 200 μL of 1× Passive Lysis Buffer (Promega™, E1941) was added to each well. […]. Subsequently, 20 μL of lysate was added to 100 μL CellTiter-Glo™ reagent on a LUMITRAC 200 plate (Greiner™ bio-one, 82050-726). Plates were briefly spun down and read on a GloMax-Multi Detection System (Promega™).
The cells listed in the tables above were incubated with OGM2 at 2 μM or 10 μM for 72 hours under standard cell culture conditions, and relative cell number was assessed using Cell Titer-Glo Luminescent Cell Viability Assay (Promega™) following the manufacturer's instructions. Luminescence was determined using a Cytation 5 reader and Gen5 software package (BioTek™). RNA expression of GPR68 and GPR4 in the corresponding cancer cell lines are listed, according to the publicly available The Human Protein Atlas version 22.0 and Ensembl version 103.38 (see proteinatlas.org). The consensus normalized expression value (“nTPM”=normalize transcript per million) was calculated as the maximum nTPM value for each gene in the two data sources.
In general terms: In ATP-based viability assays light output follows the ATP content of the culture.

T2 sequence (Q9Y271 whole entry, species assumed): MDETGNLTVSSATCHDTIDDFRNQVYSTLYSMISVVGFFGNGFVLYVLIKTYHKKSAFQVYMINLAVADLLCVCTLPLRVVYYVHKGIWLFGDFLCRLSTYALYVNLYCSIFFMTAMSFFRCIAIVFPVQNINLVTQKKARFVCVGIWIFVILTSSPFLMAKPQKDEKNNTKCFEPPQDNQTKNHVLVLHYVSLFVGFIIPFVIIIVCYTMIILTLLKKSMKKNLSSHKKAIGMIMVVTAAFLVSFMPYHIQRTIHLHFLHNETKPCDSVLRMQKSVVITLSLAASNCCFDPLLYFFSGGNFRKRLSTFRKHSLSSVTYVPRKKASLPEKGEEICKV
T9 sequence (P25100 whole entry, species assumed): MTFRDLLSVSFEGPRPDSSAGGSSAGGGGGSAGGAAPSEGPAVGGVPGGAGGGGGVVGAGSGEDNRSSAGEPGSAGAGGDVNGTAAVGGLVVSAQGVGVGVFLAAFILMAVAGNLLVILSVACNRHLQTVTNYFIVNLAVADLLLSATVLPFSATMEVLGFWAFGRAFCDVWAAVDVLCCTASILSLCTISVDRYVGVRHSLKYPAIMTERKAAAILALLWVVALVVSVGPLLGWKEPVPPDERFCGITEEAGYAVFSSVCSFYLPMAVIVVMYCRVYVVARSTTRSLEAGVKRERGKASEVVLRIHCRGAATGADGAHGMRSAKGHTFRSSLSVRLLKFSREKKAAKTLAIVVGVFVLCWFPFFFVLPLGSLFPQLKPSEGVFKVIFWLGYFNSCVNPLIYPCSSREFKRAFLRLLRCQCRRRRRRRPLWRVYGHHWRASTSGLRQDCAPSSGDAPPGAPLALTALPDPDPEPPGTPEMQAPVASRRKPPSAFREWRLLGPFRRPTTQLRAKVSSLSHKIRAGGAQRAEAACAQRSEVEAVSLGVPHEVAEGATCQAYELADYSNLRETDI
T1 sequence (Q15349 59-318 limits assumed): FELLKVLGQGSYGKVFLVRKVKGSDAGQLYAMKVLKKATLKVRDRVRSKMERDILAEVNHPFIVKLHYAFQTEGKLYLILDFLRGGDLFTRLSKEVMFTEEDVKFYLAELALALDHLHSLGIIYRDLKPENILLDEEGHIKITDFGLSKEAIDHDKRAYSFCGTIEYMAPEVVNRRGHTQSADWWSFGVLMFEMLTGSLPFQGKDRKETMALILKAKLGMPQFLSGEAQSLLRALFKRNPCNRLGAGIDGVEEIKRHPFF
T11 sequence (Q04759 whole entry): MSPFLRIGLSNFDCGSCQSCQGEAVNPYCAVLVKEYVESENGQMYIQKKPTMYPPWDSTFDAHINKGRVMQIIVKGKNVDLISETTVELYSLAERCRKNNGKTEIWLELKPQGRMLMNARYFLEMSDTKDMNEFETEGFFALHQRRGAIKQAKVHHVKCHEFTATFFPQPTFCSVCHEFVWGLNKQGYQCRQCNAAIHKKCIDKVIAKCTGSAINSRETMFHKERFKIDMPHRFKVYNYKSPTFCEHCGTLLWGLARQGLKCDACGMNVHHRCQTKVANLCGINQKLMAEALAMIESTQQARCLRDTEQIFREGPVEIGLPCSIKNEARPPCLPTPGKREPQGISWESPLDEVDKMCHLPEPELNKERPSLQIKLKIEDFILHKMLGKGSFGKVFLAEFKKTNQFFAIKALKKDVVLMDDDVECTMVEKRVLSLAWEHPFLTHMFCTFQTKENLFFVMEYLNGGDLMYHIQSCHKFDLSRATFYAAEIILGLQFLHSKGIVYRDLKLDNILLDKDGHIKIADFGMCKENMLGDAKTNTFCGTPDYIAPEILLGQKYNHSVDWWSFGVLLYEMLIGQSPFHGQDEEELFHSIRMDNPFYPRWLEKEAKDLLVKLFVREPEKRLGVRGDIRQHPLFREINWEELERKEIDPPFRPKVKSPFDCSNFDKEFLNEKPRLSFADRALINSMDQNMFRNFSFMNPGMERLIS

In the case of `CCc1ccc2c(c1)C1(NN=C(c3cccc4ccccc34)S1)C(=O)N2` (centres unmarked) [OGM1, 5-ethyl-5′-naphthalen-1-ylspiro[1H-indole-3,2′-3H-1,3,4-thiadiazole]-2-one], the remaining binding at 10 µM in experiment [1] is 100%; on MAP3K4, 100%; on GRK1, 100%; at ZAK it was 100%; at CSNK1G1 it was 82%; on CAMK4, 100%. For the same compound, the remaining binding at 10 µM at NEK1 is 83%; at ACVR2A it was 100%; on PRKCQ, 99%. The Antagonism on CysLT1 (10 uM) is −2.4; at Secretin (10 uM), 1.7; on ADRA1D (10 uM), −5.7. Besides, the Agonism at CysLT1 (12.5 uM) is on record as 0.8; at Secretin (12.5 uM), 0.9; on ADRA1D (12.5 uM), 0.8.
For the compound `CCc1ccc2c(c1)C1(NN=C(c3ccccc3)S1)C(=O)N2` (centres unmarked) [OGM2], in the experiment on U87 spheroids, the spheroid growth rate entry is reported as “impaired spheroid growth rate” and the “spheroid growth, comparison with TMZ” value was “more potent inhibitor of U87 spheroid growth than TMZ”. Besides, the “increase in spheroid growth at pH 6.2 versus pH 8” value with U87 spheroids (3 days) is given as “abrogated”. In addition, in the experiment with NCI-H82, the Class result is given as “Mildly”. In the experiment on NCI-H82 (72 hours), the “% Survival 2 μM OGM” value is 102.6% and the “% Survival 10 μM OGM” value is on record as 59.9%. In addition, the CC50 with NCI-H82 (Homo sapiens, NCI-H82, 72 hours, read-out: LC50 (the source's name)) is more than 10 µM. For the same compound, the Class result in the experiment on NCI-H82 (Table 13) is “Low”.
